The subject of test [1] is NGF-induced vascular hyper permeability. Nature of the test: Inhibition of rat NGF-induced vascular hyper permeability. The format is in vivo. Conditions: po, 1 mg/kg orally, read-out: Inhibition rate of vascular hyper permeability (%) (time after administration (h)). On the procedure:
TrkA-inhibiting activity of the present compound was evaluted in vivo. The present compound dissolved in a medium was orally administered (adminstered volume: 5 mL/kg) to male CD(SD)IGS rats (7- to 9-week old, Charles River laboratories Japan, Inc.) shaved on the back. A medium was orally administered (adminstered volume: 5 mL/kg) to the control and normal groups. After 6, 12 or 14 hours of administration, 3 μg/mL of a NGF (Mouse 2.5s, Natural, Invitrogen) solution prepared in 0.1% BSA (Sigma-Aldrich)-containing saline was intracutaneously administered (dose; 50 μL/site) at 3 sites on the back of animals under halothane anesthesia. For the normal group, 0.1% BSA-containing saline was intracutaneously administered (dose; […]) at 3 sites on the back. Immediately after intracutaneous administration, 1% Evans Blue (Tokyo Chemical Industriy Co., Ltd.) was administered intravenously from tail (adminstered volume: 3 mL/kg). After 10 minutes of administration, the animals were sacrificed by bleeding due to incision of the abdominal aorta. The sites of intracutaneous administration on the back (3 sites) were excised and the skin samples were respectively transferred to the wells in a 48-well plate (Asahi Glass Co., Ltd.). Formamide (0.8 mL/well) was added to the plate and the plate was sealed and incubated overnight at 60° C. The formamide extraction solution (200 μL) was transferred to a 96-well plate and the absorbance (wavelength: 620 nm) of Evans Blue extracted in formamide was measured on an absorbance microplate reader (SpectraMAX 190, Molecular Devices Japan, K.K.). Standard samples of Evans Blue dissolved in formamide (0, 0.78, 1.56, 3.13, 6.25, 12.5, 25 and 50 µg/mL) were measured at the same time for the absorance (wavelength: 620 nm) to generate a calibration curve. Based on the calibration curve and the absorbances of samples, the concentrations of Evans Blue in the sample was calculated. The concentrations of Evans Blue for three skin samples collected from one aminal were averaged to obtain the vale for the animal. The rate of inhibition for rat NGF-induced vascular hyper permeability of the present compound was calculated according to the following Equation: Inhibition rate (%)={1−(AX−AN)/(AC−AN)}×100 [Eq. 3]
wherein AX: the concentration of Evans Blue of the test compound (an average value of 3 samples from one animal);
AN: the concentration of Evans Blue of the normal group (an average value of 3 samples from one animal);
AC: the concentration of Evans Blue of the control group (an average value of 3 samples from one animal).

In another test the target is human TrkA (Homo sapiens (Human), UniProt P04629). Nature of the test: Measurement of TrkA kinase-inhibiting activity using human TrkA-expressing cells. The format is cell-based. Conditions: CHO-K1 cells expressing human TrkA and NFAT-bla; NGF 50 ng/ml; TR-FRET reporter. On the procedure: TrkA kinase-inhibiting activity in cell systems was measured using CHO-K1 cells exressing human TrkA and NFAT-bla (CellSenser™ TrkA-NFAT-bla CHO-K1 cells, Invitrogen).
Sequence of human TrkA (P04629 33-796): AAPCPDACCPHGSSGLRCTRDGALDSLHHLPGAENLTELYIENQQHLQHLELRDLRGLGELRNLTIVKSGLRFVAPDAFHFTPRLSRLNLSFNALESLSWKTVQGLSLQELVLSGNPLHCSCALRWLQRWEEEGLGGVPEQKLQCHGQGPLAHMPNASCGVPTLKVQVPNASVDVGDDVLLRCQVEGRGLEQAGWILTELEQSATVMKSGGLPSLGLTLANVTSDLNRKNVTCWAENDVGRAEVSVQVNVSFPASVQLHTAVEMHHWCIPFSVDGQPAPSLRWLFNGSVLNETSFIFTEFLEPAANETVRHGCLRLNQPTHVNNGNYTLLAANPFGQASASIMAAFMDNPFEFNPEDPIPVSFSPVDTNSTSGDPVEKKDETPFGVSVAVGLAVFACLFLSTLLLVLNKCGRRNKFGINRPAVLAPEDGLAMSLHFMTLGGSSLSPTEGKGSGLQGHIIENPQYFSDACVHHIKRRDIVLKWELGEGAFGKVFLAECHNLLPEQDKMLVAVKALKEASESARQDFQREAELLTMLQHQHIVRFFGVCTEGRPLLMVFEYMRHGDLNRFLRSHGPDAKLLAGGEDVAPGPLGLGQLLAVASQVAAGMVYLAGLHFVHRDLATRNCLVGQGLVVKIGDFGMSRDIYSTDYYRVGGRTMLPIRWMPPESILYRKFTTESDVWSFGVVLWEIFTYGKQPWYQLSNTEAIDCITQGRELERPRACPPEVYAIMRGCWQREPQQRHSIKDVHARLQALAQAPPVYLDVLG
On the day before the assay, CellSenser™ TrkA-NFAT-bla CHO-K1 cells were suspended in an assay medium (Opti-MEM1 Reduced Serum Medium (Invitrogen) containing 0.5% dialysed fetal bovine serum (Invitrogen), 0.1 mM nonessential amino acids (Invitrogen), 1 mM sodium pyruvate (Invitrogen) and antibiotics (100 U/mL penicillin and 100 µg/mL streptomycin (Invitrogen))) and plated at a density of 2.4×10^4 cells/40 μL/well in a 96-well clear bottom plate (Corning, Catalogue No.: 3882). In some wells were added only the assay medium at 40 μL/well (Cell-free). On the day of the assay, 10 mM of the present compound (DMSO solution) was distributed in a 96-well plate (Costar, Catalogue No.: 3363) and serially diluted with DMSO with the geometrical ratio of 3. The serial dilutions were diluted with the assay medium to 100-fold to prepare a solution of the present compound with a 10-fold concentration (DMSO concentration: 1%). To the plate where cells were plated was added the present compound at 5 µL/well and the plate was incubated in a CO2 incubator with 5% CO2, 95% Air at 37° C. for 30 minutes. For a control and a blank, the assay medium containing 1% DMSO was added at 5 µL/well in place of the solution of the present compound. Subsequently the assay medium containing NGF (Mouse 2.5s, Natural, Invitrogen) was added to the plate at 5 µL/well (final concentration of NGF: 50 ng/ml) and the plate was incubated in a CO2 incubator with 5% CO2, 95% Air at 37° C. for 5 hours. For the blank group, the assay medium was added in place of NGF at 5 µL/well. A reporter assay detection reagent ([…]) was added to the plate which was then incubated in the dark at room temperature for 120 minutes. The reporter assay detection reagent was prepared from LiveBLAzer™-FRET B/G Loading Kit (Invitrogen). On the Analyst GT (Molecular Devices Japan, K.K.) the wells were irradiated with excitation light at 405 nm and the fluorescence intensities at 460 nm and 530 nm were measured. The time resolved fluorescence resonance energy transfer (TR-FRET) ratio of each well was calculated according to the following Equation 1: TR-FRET ratio=(A460x−A460F)/(A530x−A530F) [Eq. 1]
A460x: the fluorescence intensity at 460 nm of the present compound, control or blank;
A460F: the fluorescence intensity at 460 nm of the Cell-free;
A530x: the fluorescence intensity at 530 nm of the present compound, control or blank; and
A530x: the fluorescence intensity at 530 nm of the Cell-free.
The TR-FRET inhibition rate (%) of the present compound was calculated according to the following Equation 2: Inhibition rate (%)={1−(AX−AB)/(AC−AB)}×100 [Eq. 2]
wherein AX: the TR-FRET ratio when the present compound is added;
AB: the TR-FRET of the blank; and
AC: the TR-FRET of the control.
The IC50 value by the present compound was calculated from the inhibition curve based on the inhibition rate of the present compound at respective concentrations.

Results on 14 compounds are retold here after patent US9463192B2, “Trk-inhibiting compound” (ONO PHARMACEUTICAL CO., LTD., priority 2013, dated 2016).

Where two headings read alike, the source gives them in different places.

Turning to `CS(=O)(=O)c1ccc(C(F)(F)F)cc1NC(=O)Nc1cnc(Oc2ccc(-c3cc(Cl)cnc3N)cc2)nc1` [Example 15-104, 1-{2-[4-(2-amino-5-chloro-3-pyridinyl)phenoxy]-5-pyrimidinyl}-3-[2-(methylsulfonyl)-5-(trifluoromethyl)phenyl]urea], in test [1] (14 h after administration), the inhibition in vivo at 1 mg/kg was determined as 100%. Moreover, the concentration for half-maximal inhibition (IC50) (in general, the concentration needed to halve the response being measured) on human TrkA came to 0.0005 µM.
For `CN(C)S(=O)(=O)c1ccc(C(F)(F)F)cc1NC(=O)Nc1cnc(Oc2ccc(-c3cc(C(F)(F)F)cnc3N)cc2)nc1` [Example 15-105, 2-{[(2-{4-[2-amino-5-(trifluoromethyl)-3-pyridinyl]phenoxy}-5-pyrimidinyl)carbamoyl]amino}-N,N-dimethyl-4-(trifluoromethyl)benzenesulfonamide], in that order: 100% and 0.004 µM.
For the compound `O=C(Nc1cnc(Oc2ccc(-c3cnn4ccc(N5CCC5)nc34)cc2)nc1)Nc1cc(C(F)(F)F)ccc1-c1cccnc1` [Example 21-1, 1-(2-(4-(5-(azetidin-1-yl)pyrazolo[1,5-a]pyrimidin-3-yl)phenoxy)pyrimidin-5-yl)-3-(2-(pyridin-3-yl)-5-(trifluoromethyl)phenyl)urea], the inhibition in vivo at 1 mg/kg in test [1] (14 h after administration) came to 87%. Moreover, it took 0.001 µM to reach half-maximal inhibition at human TrkA (IC50).
The like results for `Cn1nccc1-c1ccc(C(F)(F)F)cc1NC(=O)Nc1cnc(Oc2ccc(-c3cnn4ccc(N5CCC5)nc34)cc2)nc1` [Example 21-2, 1-(2-(4-(5-(azetidin-1-yl)pyrazolo[1,5-a]pyrimidin-3-yl)phenoxy)pyrimidin-5-yl)-3-(2-(1-methyl-H-pyrazol-5-yl)-5-(trifluoromethyl)phenyl)urea] were, in that order, 100% and 0.001 µM.
Turning to `COc1ccn2ncc(-c3ccc(Oc4ncc(NC(=O)Nc5cc(C(F)(F)F)ccc5-c5cccnc5)cn4)cc3)c2n1` [Example 21-9, 1-(2-(4-(5-methoxypyrazolo[1,5-a]pyrimidin-3-yl)phenoxy)pyrimidin-5-yl)-3-(2-(pyridin-3-yl)-5-(trifluoromethyl)phenyl)urea], the inhibition in vivo at 1 mg/kg in test [1] (14 h after administration) stood at 100%. Further, the IC50 on human TrkA is 0.001 µM.
In the case of `O=C(Nc1cnc(Oc2ccc(-c3cnn4cccnc34)cc2)nc1)Nc1cc(C(F)(F)F)ccc1-c1cccnc1` [Example 21-13, 1-(2-(4-(pyrazolo[1,5-a]pyrimidin-3-yl)phenoxy)pyrimidin-5-yl)-3-(2-(pyridin-3-yl)-5-(trifluoromethyl)phenyl)urea], the inhibition in vivo at 1 mg/kg in test [1] (12 h after administration) is 100%. The same compound displayed an IC50 against human TrkA of 0.001 µM.
Turning to `CN(C)c1ccn2ncc(-c3ccc(Oc4ncc(NC(=O)Nc5cc(C(F)(F)F)ccc5-c5cccnc5)cn4)cc3)c2n1` [Example 21-37, 1-(2-{4-[5-(dimethylamino)pyrazolo[1,5-a]pyrimidin-3-yl]phenoxy}-5-pyrimidinyl)-3-[2-(3-pyridinyl)-5-(trifluoromethyl)phenyl]urea], the inhibition in vivo at 1 mg/kg in test [1] (14 h after administration) was found to be 98%. For the same compound, the half-maximal inhibitory concentration (IC50) at human TrkA was 0.001 µM.
For `CN(C)c1ccn2ncc(-c3ccc(Oc4ncc(NC(=O)Nc5cc(C(F)(F)F)ccc5-c5ccnn5C)cn4)cc3)c2n1` [Example 21-51, 1-(2-{4-[5-(dimethylamino)pyrazolo[1,5-a]pyrimidin-3-yl]phenoxy}-5-pyrimidinyl)-3-[2-(1-methyl-1H-pyrazol-5-yl)-5-(trifluoromethyl)phenyl]urea], in that order: 95% and 0.001 µM.
Consider `Cc1ccn2ncc(-c3ccc(Oc4ncc(NC(=O)Nc5cc(C(F)(F)F)ccc5-c5cccnc5)cn4)cc3)c2n1` [Example 21-65, 1-{2-[4-(5-methylpyrazolo[1,5-a]pyrimidin-3-yl)phenoxy]-5-pyrimidinyl}-3-[2-(3-pyridinyl)-5-(trifluoromethyl)phenyl]urea], for which the inhibition in vivo at 1 mg/kg in test [1] (14 h after administration) was 92%. Besides, on human TrkA, the IC50 is 0.0007 µM.
On to `CCNc1ccn2ncc(-c3ccc(Oc4ncc(NC(=O)Nc5cc(C(F)(F)F)ccc5-c5cccc(C)c5)cn4)cc3)c2n1` [Example 21-67, 1-(2-{4-[5-(ethylamino)pyrazolo[1,5-a]pyrimidin-3-yl]phenoxy}-5-pyrimidinyl)-3-[3′-methyl-4-(trifluoromethyl)-2-biphenylyl]urea], for which the inhibition in vivo at 1 mg/kg in test [1] (14 h after administration) was 90%. In addition, the IC50 on human TrkA came out at 0.004 µM.
In the case of `CN(C)c1ccn2ncc(-c3ccc(Oc4ncc(NC(=O)Nc5cc(C(F)(F)F)ccc5-c5ccccc5)cn4)cc3)c2n1` [Example 21-70, 1-(2-{4-[5-(dimethylamino)pyrazolo[1,5-a]pyrimidin-3-yl]phenoxy}-5-pyrimidinyl)-3-[4-(trifluoromethyl)-2-biphenylyl]urea], in test [1] (14 h after administration), the inhibition in vivo at 1 mg/kg was 100%. At human TrkA, this compound registered an IC50 of 0.002 µM.
As for `Cc1cccc(-c2ccc(C(F)(F)F)cc2NC(=O)Nc2cnc(Oc3ccc(-c4cnn5ccc(N(C)C)nc45)cc3)nc2)c1` [Example 21-73, 1-(2-{4-[5-(dimethylamino)pyrazolo[1,5-a]pyrimidin-3-yl]phenoxy}-5-pyrimidinyl)-3-[3′-methyl-4-(trifluoromethyl)-2-biphenylyl]urea], the inhibition in vivo at 1 mg/kg in test [1] (14 h after administration) was found to be 92%. The compound also came in with a 50% inhibitory concentration (IC50) against human TrkA of 0.003 µM.
In the case of `Cc1ccccc1-c1ccc(C(F)(F)F)cc1NC(=O)Nc1cnc(Oc2ccc(-c3cnn4ccc(N(C)C)nc34)cc2)nc1` [Example 21-75, 1-(2-{4-[5-(dimethylamino)pyrazolo[1,5-a]pyrimidin-3-yl]phenoxy}-5-pyrimidinyl)-3-[2′-methyl-4-(trifluoromethyl)-2-biphenylyl]urea], in test [1] (14 h after administration), the inhibition in vivo at 1 mg/kg amounted to 100%. The IC50 against human TrkA amounted to 0.004 µM.
For `COc1ccc2ncc(-c3ccc(Oc4ncc(NC(=O)Nc5cc(C(F)(F)F)ccc5-c5cccnc5)cn4)cc3)n2n1` [Example 22-8, 1-(2-(4-(6-methoxyimidazo[1,2-b]pyridazin-3-yl)phenoxy)pyrimidin-5-yl)-3-(2-(pyridin-3-yl)-5-(trifluoromethyl)phenyl)urea], in that order: 100% and 0.001 µM.
